Results on five compounds are retold here after ChEMBL document CHEMBL5724914, “Linking interpersonal differences in gut microbiota composition and drug biotransformation activity” (2024).

Structures are written as SMILES.

For series [1] the following is noted: human gut metagenome, 24 h, 2 µM.
Series [2] in a line: The drug is tested on WLS-240 corresponding to human gut metagenome with ENA study accession number: PRJEB37062 and ENA sample accession number: ERS12561773 for biotransformation under anaerobic condition. The drug concentrations were measured over 9 timepoints collected between 0 and 24 hours of incubation by liquid-chromatography-coupled mass spectrometry (LC–MS). The following applies: 2 µM.

For series [3] the following is noted: human gut metagenome, 24 h, 2 µM. The source holds these as a separate data set.
The conditions of series [4]: human gut metagenome, 24 h, 2 µM. This is another data set of the same source.
For series [5] the following is noted: human gut metagenome, 24 h, 2 µM. The source holds these as a separate data set.
The nature of series [6]: The drug is tested on WLS-098 corresponding to human gut metagenome with ENA study accession number: PRJEB37062 and ENA sample accession number: ERS12561754 for biotransformation under anaerobic condition. The drug concentrations were measured over 9 timepoints collected between 0 and 24 hours of incubation by liquid-chromatography-coupled mass spectrometry (LC–MS). The settings on record: 2 µM.

The nature of series [7]: The drug is tested on Z-001 corresponding to mouse gut metagenome with ENA study accession number: PRJEB37062 and ENA sample accession number: ERS12561801 for biotransformation under anaerobic condition. The drug concentrations were measured over 9 timepoints collected between 0 and 24 hours of incubation by liquid-chromatography-coupled mass spectrometry (LC–MS). The following applies: 2 µM.

Series [8] is described as follows: The drug is tested on Z-022 corresponding to mouse gut metagenome with ENA study accession number: PRJEB37062 and ENA sample accession number: ERS12561821 for biotransformation under anaerobic condition. The drug concentrations were measured over 9 timepoints collected between 0 and 24 hours of incubation by liquid-chromatography-coupled mass spectrometry (LC–MS). The following applies: 2 µM.

Series [9] can be described thus: The drug is tested on WLS-006 corresponding to human gut metagenome with ENA study accession number: PRJEB37062 and ENA sample accession number: ERS12561741 for biotransformation under anaerobic condition. The drug concentrations were measured over 9 timepoints collected between 0 and 24 hours of incubation by liquid-chromatography-coupled mass spectrometry (LC–MS). The settings on record: 2 µM.

For series [10] the following is noted: human gut metagenome, 24 h, 2 µM. This is another data set of the same source.
Series [11] can be described thus: The drug is tested on Z-025 corresponding to rabbit gut metagenome with ENA study accession number: PRJEB37062 and ENA sample accession number: ERS12561824 for biotransformation under anaerobic condition. The drug concentrations were measured over 9 timepoints collected between 0 and 24 hours of incubation by liquid-chromatography-coupled mass spectrometry (LC–MS). The following applies: 2 µM.

For series [12] the following is noted: human gut metagenome, 24 h, 2 µM. The source holds these as a separate data set.
The conditions of series [13]: human gut metagenome, 24 h, 2 µM. This is another data set of the same source.
Series [14] in a line: The drug is tested on WLS-038 corresponding to human gut metagenome with ENA study accession number: PRJEB37062 and ENA sample accession number: ERS12561745 for biotransformation under anaerobic condition. The drug concentrations were measured over 9 timepoints collected between 0 and 24 hours of incubation by liquid-chromatography-coupled mass spectrometry (LC–MS). The following applies: 2 µM.

The nature of series [15]: The drug is tested on WLS-073 corresponding to human gut metagenome with ENA study accession number: PRJEB37062 and ENA sample accession number: ERS12561749 for biotransformation under anaerobic condition. The drug concentrations were measured over 9 timepoints collected between 0 and 24 hours of incubation by liquid-chromatography-coupled mass spectrometry (LC–MS). The settings on record: 2 µM.

A short description of series [16]: The drug is tested on Z-017 corresponding to mouse gut metagenome with ENA study accession number: PRJEB37062 and ENA sample accession number: ERS12561816 for biotransformation under anaerobic condition. The drug concentrations were measured over 9 timepoints collected between 0 and 24 hours of incubation by liquid-chromatography-coupled mass spectrometry (LC–MS). The following applies: 2 µM.

Series [17] can be described thus: The drug is tested on Z-030 corresponding to mouse gut metagenome with ENA study accession number: PRJEB37062 and ENA sample accession number: ERS12561829 for biotransformation under anaerobic condition. The drug concentrations were measured over 9 timepoints collected between 0 and 24 hours of incubation by liquid-chromatography-coupled mass spectrometry (LC–MS). The settings on record: 2 µM.

Series [18] in a line: The drug is tested on Z-005 corresponding to metagenome with ENA study accession number: PRJEB37062 and ENA sample accession number: ERS12561805 for biotransformation under anaerobic condition. The drug concentrations were measured over 9 timepoints collected between 0 and 24 hours of incubation by liquid-chromatography-coupled mass spectrometry (LC–MS). The following applies: 2 µM.

Series [19] is described as follows: The drug is tested on WLS-350 corresponding to human gut metagenome with ENA study accession number: PRJEB37062 and ENA sample accession number: ERS12561789 for biotransformation under anaerobic condition. The drug concentrations were measured over 9 timepoints collected between 0 and 24 hours of incubation by liquid-chromatography-coupled mass spectrometry (LC–MS). The following applies: 2 µM.

The conditions of series [20]: human gut metagenome, 24 h, 2 µM. The source holds these as a separate data set.
Further: call rule not given here.

Regarding `C=CC[C@@H]1/C=C(\C)C[C@H](C)C[C@H](OC)[C@H]2O[C@@](O)(C(=O)C(=O)N3CCCC[C@H]3C(=O)O[C@H](/C(C)=C/[C@@H]3CC[C@@H](O)[C@H](OC)C3)[C@H](C)[C@@H](O)CC1=O)[C@H](C)C[C@@H]2OC.O` [TACROLIMUS], the “Bacterial Biotransformation” value in [1] is reported as “Compound metabolized”; in [2], “Compound metabolized”; in series [3], “Compound metabolized”; in [4], “Compound metabolized”; in series [5], “Compound metabolized”; in series [6], “Compound NOT metabolized”. Moreover, the “Bacterial Biotransformation” value in series [7] is “Compound NOT metabolized”; in series [8], “Compound NOT metabolized”; in [9], “Compound metabolized”; in series [10], “Compound metabolized”; in series [11], “Compound NOT metabolized”; in series [12], “Compound metabolized”. Also, the “Bacterial Biotransformation” value in [13] is “Compound metabolized”; in series [14], “Compound metabolized”; in series [15], “Compound metabolized”; in series [16], “Compound NOT metabolized”; in series [17], “Compound NOT metabolized”; in series [18], “Compound NOT metabolized”. The “Bacterial Biotransformation” value is given as “Compound NOT metabolized” in [19] and “Compound metabolized” in [20].
Take `C#C[C@]1(OC(C)=O)CC[C@H]2[C@@H]3CCC4=C/C(=N/O)CC[C@@H]4[C@H]3CC[C@@]21CC` [NORGESTIMATE]: the “Bacterial Biotransformation” value is “Compound NOT metabolized” in [1]; “Compound metabolized” in series [2]; “Compound metabolized” in series [3]; “Compound metabolized” in series [4]; “Compound metabolized” in [5]; “Compound metabolized” in [6]. The “Bacterial Biotransformation” value in [7] was “Compound NOT metabolized”; in series [8], “Compound NOT metabolized”; in series [9] it was “Compound metabolized”; in series [10], “Compound NOT metabolized”; in [11] it was “Compound NOT metabolized”; in series [12] it was “Compound metabolized”. Moreover, the “Bacterial Biotransformation” value in series [13] was “Compound NOT metabolized”; in [14], “Compound metabolized”; in series [15], “Compound metabolized”; in series [16] it was “Compound NOT metabolized”; in series [17] it was “Compound metabolized”; in series [18], “Compound NOT metabolized”. Also, the “Bacterial Biotransformation” value in series [19] and in series [20] was “Compound metabolized” throughout.
With `CC[C@H](C)C(=O)O[C@H]1CCC=C2C=C[C@H](C)[C@H](CC[C@@H]3C[C@@H](O)CC(=O)O3)[C@H]21` [MEVASTATIN], the “Bacterial Biotransformation” value in series [1] is “Compound metabolized”; in series [2], “Compound metabolized”; in series [3], “Compound NOT metabolized”; in series [4] it was “Compound metabolized”; in [5] it was “Compound metabolized”; in series [6], “Compound NOT metabolized”. The “Bacterial Biotransformation” value in series [7] was “Compound NOT metabolized”; in [8], “Compound metabolized”; in series [9], “Compound metabolized”; in series [10], “Compound metabolized”; in [11] it was “Compound metabolized”; in series [12], “Compound metabolized”. The “Bacterial Biotransformation” value was “Compound metabolized” in series [13]; “Compound metabolized” in [14]; “Compound NOT metabolized” in series [15]; “Compound metabolized” in [16]; “Compound metabolized” in [17]; “Compound NOT metabolized” in [18]. The “Bacterial Biotransformation” value is reported as “Compound NOT metabolized” in series [19] and “Compound metabolized” in series [20].
In the case of `COc1ccc2cc([C@H](C)C(=O)O)ccc2c1` [NAPROXEN], the “Bacterial Biotransformation” value in series [1], in series [2], in series [3], in [4], in series [5] and in series [6] was “Compound metabolized” throughout. Moreover, the “Bacterial Biotransformation” value in [7] is “Compound NOT metabolized”; in [8], “Compound NOT metabolized”; in [9], “Compound metabolized”; in series [10], “Compound metabolized”; in series [11] it was “Compound NOT metabolized”; in series [12] it was “Compound metabolized”. Besides, the “Bacterial Biotransformation” value in [13] is listed as “Compound metabolized”; in series [14], “Compound NOT metabolized”; in [15], “Compound NOT metabolized”; in series [16], “Compound NOT metabolized”; in [17] it was “Compound NOT metabolized”; in series [18], “Compound NOT metabolized”. The “Bacterial Biotransformation” value was “Compound metabolized” in series [19] and “Compound NOT metabolized” in [20].
Regarding `CN1CCC(OC(c2ccccc2)c2ccccc2)CC1`, the “Bacterial Biotransformation” value in series [1] is reported as “Compound metabolized”; in series [2] it was “Compound metabolized”; in [3], “Compound NOT metabolized”; in series [4], “Compound NOT metabolized”; in series [5] it was “Compound metabolized”; in series [6] it was “Compound metabolized”. Also, the “Bacterial Biotransformation” value in series [7] is reported as “Compound NOT metabolized”; in series [8], “Compound NOT metabolized”; in [9], “Compound NOT metabolized”; in series [10], “Compound metabolized”; in series [11], “Compound metabolized”; in [12], “Compound metabolized”. Besides, the “Bacterial Biotransformation” value is “Compound metabolized” in series [13]; “Compound NOT metabolized” in series [14]; “Compound NOT metabolized” in series [15]; “Compound NOT metabolized” in [16]; “Compound NOT metabolized” in series [17]; “Compound NOT metabolized” in series [18]. The “Bacterial Biotransformation” value in series [19] and in [20] was “Compound NOT metabolized” in each case.
